Reference: US20040023295A1, “Methods and systems for analyzing complex biological systems” (priority 2001, published 2004)

Tested on: Saccharomyces cerevisiae wild type strain BY4743
Experiment: Yeast azole drug experiment AF1: metabolite analysis (GC-MS, LC-MS)
Assay type: cell-based

C[C@@H]1[C@H](O)[C@@H](C)/C=C/C=C/C=C/C=C/C=C/C=C/C=C/[C@H](O[C@@H]2O[C@H](C)[C@@H](O)[C@H](N)[C@@H]2O)C[C@@H]2O[C@](O)(C[C@@H](O)C[C@@H](O)[C@H](O)CC[C@@H](O)C[C@@H](O)CC(=O)O[C@H]1C)C[C@H](O)[C@H]2C(=O)O [Amphoteracin B]
Fold Change of metabolite 5hydroxyL-tryptophan (platform nLC, p-Value 1): 0 | Fold Change of metabolite 6-benzylaminopurine (platform nLC, p-Value 1): 0 | Fold Change of metabolite NacetylD-glucosamine (platform nLC, p-Value 1): 0 | Fold Change of metabolite NacetylL-ornithine (platform nLC, p-Value 1): 0 | Fold Change of metabolite abscisic acid (platform nLC, p-Value 1): 0 | Fold Change of metabolite adenine (platform nLC, p-Value 1): 0 | Fold Change of metabolite adenosine (platform nLC, p-Value 1): 0 | Fold Change of metabolite anthranilic acid (platform nLC, p-Value 1): 0 | Fold Change of metabolite argininosuccinate (platform nLC, p-Value 1): 0 | Fold Change of metabolite benzoic acid (platform nLC, p-Value 1): 0 | Fold Change of metabolite catechol (platform nLC, p-Value 1): 0 | Fold Change of metabolite cinnamic acid (platform nLC, p-Value 1): 0 | Fold Change of metabolite citricanoic/itaconi (platform nLC, p-Value 1): 0 | Fold Change of metabolite coumaric acid (platform nLC, p-Value 1): 0 | Fold Change of metabolite cytosine (platform nLC, p-Value 1): 0 | Fold Change of metabolite diaminopimelic acid (platform nLC, p-Value 1): 0 | Fold Change of metabolite dihydrofolic acid (platform nLC, p-Value 1): 0 | Fold Change of metabolite estrone (platform nLC, p-Value 1): 0 | Fold Change of metabolite farnesol (platform nLC, p-Value 1): 0 | Fold Change of metabolite folic acid (platform nLC, p-Value 1): 0 | Fold Change of metabolite gibberellic (platform nLC, p-Value 1): 0 | Fold Change of metabolite guanine (platform nLC, p-Value 1): 0 | Fold Change of metabolite histidine (platform nLC, p-Value 1): 0 | Fold Change of metabolite homogentisic/uric (platform nLC, p-Value 1): 0 | Fold Change of metabolite hydrocortisone (platform nLC, p-Value 1): 0 | Fold Change of metabolite indole3-pyruvic acid (platform nLC, p-Value 1): 0 | Fold Change of metabolite jasmonic acid (platform nLC, p-Value 1): 0 | Fold Change of metabolite luteolin (platform nLC, p-Value 1): 0 | Fold Change of metabolite malonic acid (platform nLC, p-Value 1): 0 | Fold Change of metabolite methionine (platform nLC, p-Value 1): 0 | Fold Change of metabolite phenylpyruvic acid (platform nLC, p-Value 1): 0 | Fold Change of metabolite phosphoenolpyruvate (platform nLC, p-Value 1): 0 | Fold Change of metabolite pinitol (platform nLC, p-Value 1): 0 | Fold Change of metabolite porphobilinogen (platform nLC, p-Value 1): 0 | Fold Change of metabolite retinoic acid (platform nLC, p-Value 1): 0 | Fold Change of metabolite salicylic/HObenzoic (platform nLC, p-Value 1): 0 | Fold Change of metabolite shikimic acid (platform nLC, p-Value 1): 0 | Fold Change of metabolite sinapinic acid (platform nLC, p-Value 1): 0 | Fold Change of metabolite thymine (platform nLC, p-Value 1): 0 | Fold Change of metabolite DL-aminoadipic acid (platform pLC, p-Value 0.229215472): 0.4703 | Fold Change of metabolite mevalonic lactone (platform pLC, p-Value 0.251617022): −0.4606 | Fold Change of metabolite methionine (platform pLC, p-Value 0.367502423): 0.3299 | Fold Change of metabolite NacetylL-ornithine (platform pLC, p-Value 0.392871315): 1.319 | Fold Change of metabolite citrulline (platform pLC, p-Value 0.433366283): 1.798 | Fold Change of metabolite proline (platform pLC, p-Value 0.474762121): 0.6707 | Fold Change of metabolite ornithine (platform pLC, p-Value 0.48461244): 0.5049 | Fold Change of metabolite arginine (platform pLC, p-Value 0.522893347): 0.4662 | Fold Change of metabolite asparagine (platform pLC, p-Value 0.526485859): 0.6344 | Fold Change of metabolite alanine/sarcosine (platform pLC, p-Value 0.540255177): 0.2602 | Fold Change of metabolite pipecolic acid (platform pLC, p-Value 0.556385814): 0.5237 | Fold Change of metabolite glutamate (platform pLC, p-Value 0.563874982): 0.4341 | Fold Change of metabolite phenylalanine (platform pLC, p-Value 0.573569375): 0.4036 | Fold Change of metabolite mannitol (platform pLC, p-Value 0.575742486): 0.4543 | Fold Change of metabolite glutamine/lysine (platform pLC, p-Value 0.618892728): 0.3981 | Fold Change of metabolite aspartic acid (platform pLC, p-Value 0.626001257): 0.3594 | Fold Change of metabolite threonine/homoserin (platform pLC, p-Value 0.668114613): 0.3145 | Fold Change of metabolite serine (platform pLC, p-Value 0.716422123): 0.2011 | Fold Change of metabolite leucine/isoleucine/ (platform pLC, p-Value 0.723852356): 0.2746 | Fold Change of metabolite hypoxanthine (platform pLC, p-Value 0.74082632): 0.2057 | Fold Change of metabolite pyridoxine (platform pLC, p-Value 0.776529987): −0.1684 | Fold Change of metabolite guanosine (platform pLC, p-Value 0.886514477): 0.7598 | Fold Change of metabolite selenoDL-methionine (platform pLC, p-Value 0.888275646): 1.178 | Fold Change of metabolite adenine (platform pLC, p-Value 0.892253251): 0.1153 | Fold Change of metabolite 4ambutyrate/dimglyc (platform pLC, p-Value 0.920009792): 0.01279 | Fold Change of metabolite glutathione (platform pLC, p-Value 0.951676383): −0.03348 | Fold Change of metabolite 4-aminobenzoic acid (platform pLC, p-Value 1): 0 | Fold Change of metabolite 4-methylcatechol (platform pLC, p-Value 1): 0 | Fold Change of metabolite 5hydroxyL-tryptophan (platform pLC, p-Value 1): 0 | Fold Change of metabolite 6benzylaminopurine (platform pLC, p-Value 1): 0 | Fold Change of metabolite NacetylD-glucosamine (platform pLC, p-Value 1): 0 | Fold Change of metabolite NacetylL-glutamate (platform pLC, p-Value 1): 0 | Fold Change of metabolite abscisic acid (platform pLC, p-Value 1): 0 | Fold Change of metabolite adenosine (platform pLC, p-Value 1): 0 | Fold Change of metabolite allantoic acid (platform pLC, p-Value 1): 0 | Fold Change of metabolite anthranilic acid (platform pLC, p-Value 1): 0 | Fold Change of metabolite argininosuccinate (platform pLC, p-Value 1): 0 | Fold Change of metabolite biotin (platform pLC, p-Value 1): 0 | Fold Change of metabolite caffeine (platform pLC, p-Value 1): 0 | Fold Change of metabolite citric acid TME (platform pLC, p-Value 1): 0 | Fold Change of metabolite cytidine (platform pLC, p-Value 1): 0 | Fold Change of metabolite cytosine (platform pLC, p-Value 1): 0 | Fold Change of metabolite diaminopimelic acid (platform pLC, p-Value 1): 0 | Fold Change of metabolite dihydrofolic acid (platform pLC, p-Value 1): 0 | Fold Change of metabolite dipicolinic acid (platform pLC, p-Value 1): 0 | Fold Change of metabolite folic acid (platform pLC, p-Value 1): 0 | Fold Change of metabolite glucosamine (platform pLC, p-Value 1): 0 | Fold Change of metabolite glucosamine6PO4 (platform pLC, p-Value 1): 0 | Fold Change of metabolite histidine (platform pLC, p-Value 1): 0 | Fold Change of metabolite hydrocortisone (platform pLC, p-Value 1): 0 | Fold Change of metabolite itaconic acid dimes (platform pLC, p-Value 1): 0 | Fold Change of metabolite luteolin (platform pLC, p-Value 1): 0 | Fold Change of metabolite niacinamide (platform pLC, p-Value 1): 0 | Fold Change of metabolite nopaline (platform pLC, p-Value 1): 0 | Fold Change of metabolite phosphoenolpyruvate (platform pLC, p-Value 1): 0 | Fold Change of metabolite progesterone (platform pLC, p-Value 1): 0 | Fold Change of metabolite riboflavin (platform pLC, p-Value 1): 0 | Fold Change of metabolite sugar-phosphate (platform pLC, p-Value 1): 0 | Fold Change of metabolite thiamine (platform pLC, p-Value 1): 0 | Fold Change of metabolite thymine (platform pLC, p-Value 1): 0 | Fold Change of metabolite tryptophan (platform pLC, p-Value 1): 0 | Fold Change of metabolite nicotinic acid (platform pLC, p-Value 7.53474E−05): −0.9989
